Results reported in patent US9322049B2, “Activation and activators of SirT6” (CORNELL UNIVERSITY, priority 2009, dated 2016).

Assays:
SirT6 [1] = molecular target: T1, SirT6 (Homo sapiens, UniProt Q8N6T7); assay: Separation of SIRT6-DNA complex on Ni-NTA resin and Kd of DNA by gel electrophoresis (Example 6); format: binding
T1 construct: The protein expression and purification were the same as the full length SIRT6 as described above; made in house; host or cells: E. coli BL21 Codon-plus RIPL
Procedure: The linearized DNA was incubated with SirT6 and Ni-NTA resin. The resin was washed as described in Materials and Methods, and the complex of SirT6-DNA was dissociated by 1 mM suramin. The parallel experiments were done in the presence of 500 uM H3 peptide. DNA bound to SirT6 was quantified and fit to Michaelis-Menten equation to get Kd of DNA binding to the enzyme. […] The single stranded DNA was incubated with SirT6 and Ni-NTA resin. The resin was washed and the complex of SirT6-ssDNA was dissociated by 1 mM suramin. The parallel experiments were done in the presence of 500 uM H3 peptide. […] The linearized DNA was incubated with SirT6 and Ni-NTA resin with or without H3 peptide. After washing, the resin was incubated with different concentration of surmain. The dissociated DNA was quantified by gel electrophoresis. […] After the resin was washed, DNA was dissociated with 1 mM suramin and quantified by gel electrophoresis. Lane 1, 150 ng circular pSTBlue (C-pSTBlue); Lane 2, 150 ng pSTBlue cut with BamHI (B-pSTBlue); Lane 3, 150 ng pSTBlue cut with EcoRV (E-pSTBlue); Lane 4, circular pSTBlue bound to SirT6; Lane 5, pSTBlue cut with BamHI bound to SirT6; Lane 6, pSTBlue cut with EcoRV bound to SirT6; Lane 7, circular pSTBlue bound to SirT6 in the presence of H3; Lane 8, pSTBlue cut with BamHI bound to SirT6 in the presence of H3; Lane 9, pSTBlue cut with EcoRV bound to SirT6 in the presence of H3; Lane 10, DNA ladder.
25% slurry of Ni-NTA resin was incubated with 5 μM SIRT6 and 500 μM H3 peptide for 1 hour at room temperature, in addition with different concentration of pSTBlue which was linearized with BamHI or different concentration of single stranded DNA, and/or 500 μM H3 peptide. After incubation, the resin was spun at 4,000 rpm for 1 minute, and was washed with 10 fold of resin volume with 10 mM imidazole, 100 mM phosphate buffer, pH 7.5, and then 10 fold volume of resin volume with 20 mM imidazole, 10 mM phosphate buffer, pH 7.5. The SIRT6-DNA complex was separated from the resin by adding 250 mM imidazole, 100 mM phosphate buffer, pH 7.5. […] The DNA bound to SIRT6 was then quantified by DNA gel electrophoresis: Linearized pSTBlue was quantified by 0.8% agarose gel electrophoresis using Tris-acetate acid buffer (1×TAE) run at room temperature; single stranded DNA was quantified by 6% acrylamide gel using Tris-boric acid buffer (1×TBE) run at room temperature. […]
In order to test if SIRT6 distinguished different DNA in the binding, pSTBlue was cut with different enzymes and purified by […]™ III kit (MP Biomedicals, LLC). […] DNA was then dissociated from SIRT6 by adding suramin to a final concentration of 1 mM and quantified by 0.8% agarose gel electrophoresis.

SirT6 [2] = molecular target: T1, SirT6; assay: Determination of Kd of DNA for SirT6 activation by HPLC (Example 2); format: biochemical; settings: 800 μM NAD, 480 μM H3, 10 μM SirT6, 2 hours 37° C.; fit Activation (fold)=1+m*x/(Kd+x)
Procedure: FIG. 5A depicts a schematic of DNA structure. […] After 2 hours incubation at 37° C., either the deacetylated H3 was separated from H3 in the reaction containing the digested calf thymus DNA or AADPR was separated from other components in the reaction containing ssDNA, the plasmid, or dsDNA.
The plasmid pSTBlue was digested with BamHI and EcoRV and purified by […]™ III kit. […] The AADPR was separated by HPLC and the quantified data were fit into Michaelis-Menten equation to get Km of H3.
In the enzymatic reaction, the following DNA was used.
Calf thymus DNA (USB Corporation), which was digested with EcoRI and then purified using Spinprep Gel DNA Kit (Novagen);
ssDNA (5′ […] 3′ (SEQ ID NO: 9), Integrated DNA Technologies);
dsDNA (forward 5′ […] 3′ (SEQ ID NO: 10), reverse 5′ […] 3′ (SEQ ID NO: 11), Integrated DNA Technologies); and
pSTBlue plasmid, which was amplified using DH5α cells and purified by WIZARD™ PLUS (Midiprep) DNA purification system (Promega).
The precipitated proteins and other insolubles were removed by centrifugation at 15,000 rpm for 5 minutes. DNA in the supernatant was further removed by centrifugation at 15,000 rpm for 10 minutes using Microcon with 10 kDa cutoff (Millipore). In the experiment with the digested calf thymus DNA, the peptides were separated by a Waters Xterra RP-18 column using a gradient of 0-30% acetonitrile in 0.1% trifluoroacetic acid. […]

[3] = in the presence of 500 uM H3 peptide

T1 sequence (Q8N6T7 whole entry): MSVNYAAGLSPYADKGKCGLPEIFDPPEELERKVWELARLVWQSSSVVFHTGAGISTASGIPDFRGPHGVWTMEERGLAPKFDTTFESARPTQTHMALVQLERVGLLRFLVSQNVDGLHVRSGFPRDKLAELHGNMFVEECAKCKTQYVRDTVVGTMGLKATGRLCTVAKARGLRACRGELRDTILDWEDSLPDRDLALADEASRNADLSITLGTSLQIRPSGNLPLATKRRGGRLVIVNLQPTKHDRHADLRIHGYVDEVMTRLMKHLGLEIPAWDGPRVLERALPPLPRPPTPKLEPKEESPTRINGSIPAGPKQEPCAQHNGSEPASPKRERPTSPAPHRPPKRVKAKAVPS

Substance: ssDNA: ssDNA 5′ GGGGATCCATGAAGATGAGCTTTGCGTTGACT 3′ (SEQ ID NO: 9), Integrated DNA Technologies (DNA, backbone and methylation of C not given here)
- Kd of DNA binding to SirT6 (SirT6 [1]; in the absence of H3): 195.5 ng/µL
- Vmax of DNA bound to SirT6 (SirT6 [1]; in the absence of H3): 151.7 ng/µL
- Kd of DNA binding to SirT6 (SirT6 [1]; [3]): 238.8 ng/µL
- Vmax of DNA bound to SirT6 (SirT6 [1]; [3]): 333.5 ng/µL
- Kd of DNA for activation of SirT6 (SirT6 [2]): 127.7 ng/µL
